Where “and” joins values, the source holds several entries; their conditions need not be identical. Equal entries are not always repeated.

The subject of this assay is Human immunodeficiency virus 1. In words: Antiviral activity against HIV1 in MT4 cells assessed as reduction of virus-induced cytopathicity by XTT assay. It counts as functional. A general note: Protection from cytopathic effect is a common read-out in antiviral testing.
As to `S=C(NCCc1ccccc1)Nc1ncc(Cl)s1`, the Log10ED50 is reported as 0.4314.

Consider `S=C(NCCc1ccccc1Cl)Nc1nccs1`, for which the pED50 is on record as 0.3979.

With `S=C(NCCc1ccccc1)Nc1nncs1`, the Log10ED50 is 0.7243.

Take `S=C(NCCc1ccccn1)Nc1nccs1`: the Log10ED50 was 0.1139.

As to `S=C(NCCc1cccc(Oc2ccccc2)c1)Nc1nccs1`, the Log10ED50 is recorded as 0.4471.

For the compound `N#Cc1csc(NC(=S)NCCc2ccccc2)n1`, the pED50 amounted to 0.6989.

Regarding `COc1cccc(F)c1CCNC(=S)Nc1nccs1`, the pED50 was 0.5229.

`COc1ccc(Br)cc1CCNC(=S)Nc1nccs1`: the pED50 is 1.301.

For the compound `Fc1cccc(F)c1CCNC(=S)Nc1nccs1`, the pED50 is reported as 1.6989.

On to `Fc1cccc(Cl)c1CCNC(=S)Nc1nccs1`, for which the pED50 is reported as 1.301.

Regarding `Cn1cccc1CNC(=S)Nc1ccc(Cl)cn1`, the pED50 was found to be 0.602.

On to `CN(C)c1ccc(F)c(CCNC(=S)Nc2ccc(Cl)cn2)c1F`, for which the pED50 stood at 1.3979.

With `CCOc1ccc(F)c(CCNC(=S)Nc2ccc(Br)cn2)c1F`, the pED50 worked out at 2.2218.

As for `COCc1ccc(F)c(CCNC(=S)Nc2ccc(Br)cn2)c1F`, the pED50 stood at 2.2218.

For the compound `CCOc1ccc(F)c(CCNC(=S)Nc2ccc(Cl)cn2)c1Cl`, the pED50 was determined as 2.0969.

Take `CCOc1ccc(F)c(CCNC(=S)Nc2ccc(I)cn2)c1Cl`: the pED50 came to 1.8239.

With `COc1ccc(OC)c(CCNC(=S)Nc2ccc(Cl)cn2)c1F`, the pED50 worked out at 2.6989.

For the compound `COc1ccc(F)c(CCNC(=S)Nc2ccc(Cl)cn2)c1OC`, the pED50 is 1.9208.

Consider `CCOc1cccc(F)c1CCNC(=S)Nc1ccc(Br)cn1`, for which the pED50 is 1.886 and 1.6989.

Take `CN(C)C(=O)c1ccc(F)c(CCNC(=S)Nc2ccc(Br)cn2)c1F`: the pED50 came to 1.0969.

Turning to `COc1ccc(OC)c(CCNC(=S)Nc2ccc(Cl)cn2)c1`, the pED50 is 1.3979.

In the case of `N#Cc1ccc(F)c(CCNC(=S)Nc2ccc(Br)cn2)c1F`, the pED50 turned out to be 1.886.

In the case of `Fc1ccccc1CCNC(=S)Nc1nccs1`, the pED50 worked out at 1.

Take `Fc1cccc(CCNC(=S)Nc2nccs2)c1`: the pED50 stood at 0.6021.

Take `Fc1ccc(CCNC(=S)Nc2nccs2)cc1`: the Log10ED50 is recorded as 0.5185.

With `N#Cc1csc(NC(=S)NCCc2c(F)cccc2F)n1`, the pED50 amounted to 1.5229.

Take `Cn1cccc1CNC(=S)Nc1ccc(C#N)cn1`: the pED50 turned out to be 0.959.

Turning to `COc1ccccc1CCNC(=S)Nc1nccs1`, the pED50 is 0.3979.

Regarding `COc1ccc(CCNC(=S)Nc2nccs2)cc1`, the Log10ED50 was determined as 0.7404.

As to `Cc1ccccc1CCNC(=S)Nc1nccs1`, the pED50 worked out at 0.0227.

On to `CCOc1ccc(OCC)c(CCNC(=S)Nc2ccc(Br)cn2)c1`, for which the pED50 is on record as 1.7447.

As for `O=[N+]([O-])c1ccccc1CCNC(=S)Nc1nccs1`, the Log10ED50 was 0.0414.

On to `CCOc1cccc(CCNC(=S)Nc2nccs2)c1`, for which the pED50 was found to be 0.8239.

For the compound `CCCOc1cccc(CCNC(=S)Nc2nccs2)c1`, the Log10ED50 was found to be 0.3424.

As for `CC(C)Oc1cccc(CCNC(=S)Nc2nccs2)c1`, the pED50 is 0.3979.

Regarding `Cc1csc(NC(=S)NCCc2ccccc2)n1`, the pED50 amounted to 0.3979.

Turning to `CCc1csc(NC(=S)NCCc2ccccc2)n1`, the pED50 was found to be 0.1549.

Regarding `CC(C)c1csc(NC(=S)NCCc2ccccc2)n1`, the Log10ED50 is recorded as 0.1139.

`CCCCc1csc(NC(=S)NCCc2ccccc2)n1`: the Log10ED50 amounted to 0.1139.

For `S=C(NCCc1ccccc1)Nc1ccccn1`, the pED50 was determined as 0.6989.

Regarding `S=C(NCCc1ccccc1)Nc1ccc(Br)cn1`, the pED50 is reported as 1.301.

With `N#Cc1ccc(F)c(CC/N=C(\S)Nc2ccc(Cl)cn2)c1F`, the pED50 came to 2.2218.

Take `COc1ccc(F)c(F)c1CC/N=C(\S)Nc1ccc(Br)cn1`: the pED50 stood at 2.1589.

`S=C(NCCc1ccccc1)Nc1nccs1`: the Log10ED50 is recorded as 0.1139.

As for `S=C(NCCc1cccnc1)Nc1nccs1`, the Log10ED50 is 0.8062.

As for `S=C(NCCc1ccco1)Nc1nccs1`, the Log10ED50 stood at 0.716.

Consider `CCOC(=O)c1csc(NC(=S)NCCc2ccccc2)n1`, for which the pED50 is 0.301.

With `Cc1ccc(NC(=S)NCCc2ccccc2)nc1`, the pED50 amounted to 0.8239.

`Cc1ccc(NC(=S)NCCc2c(F)cccc2F)nc1`: the pED50 is listed as 2.

Take `CCOc1c(Cl)cc(F)c(CCNC(=S)Nc2ccc(Br)cn2)c1Cl`: the pED50 turned out to be 1.886.

In the case of `COc1ccc(F)c(CCNC(=S)Nc2ccc(Br)cn2)c1F`, the pED50 turned out to be 1.8239.

Turning to `CCCc1csc(NC(=S)NCCc2ccccc2)n1`, the Log10ED50 was determined as 0.2041.

Take `CCOc1ccc(OC)c(CCNC(=S)Nc2ccc(Cl)cn2)c1F`: the pED50 turned out to be 2.301.

As for `CCOc1cccc(F)c1CCNC(=S)Nc1ccc(C)cn1`, the pED50 stood at 0.6989.

Consider `Cc1ccc(NC(=S)NCCc2ccccn2)nc1`, for which the pED50 is 0.5228.

As to `CCc1csc(NC(=S)NCCc2c(F)cccc2F)n1`, the pED50 is recorded as 1.0969.

`Oc1ccccc1CCNC(=S)Nc1nccs1`: the Log10ED50 turned out to be 0.602.

For `COc1cccc(OC)c1CCNC(=S)Nc1nccs1`, the pED50 was found to be 1.0457.

Turning to `CC(=O)NCc1ccc(F)c(CCNC(=S)Nc2ccc(Br)cn2)c1F`, the pED50 amounted to 0.0457.

Regarding `COc1cccc(CCNC(=S)Nc2nccs2)c1`, the pED50 was determined as 0.2218.

`COc1ccc(OC)c(CCNC(=S)Nc2nccs2)c1`: the pED50 was found to be 0.3979.

Turning to `CCOc1ccc(F)c(F)c1CCNC(=S)Nc1ccc(Br)cn1`, the pED50 was 2.1549.

Consider `FC(F)(F)c1csc(NC(=S)NCCc2ccccc2)n1`, for which the pED50 came out at 0.301.

`CCOc1ccc(F)c(CCNC(=S)Nc2ccc(C#N)cn2)c1Cl`: the pED50 worked out at 2.5229.

Regarding `CCOc1cccc(F)c1CCNC(=S)Nc1nccs1`, the pED50 worked out at 0.6989.

In the case of `CN(C)c1ccc(F)c(CCNC(=S)Nc2ccc(Br)cn2)c1F`, the pED50 was 1.7447 and 1.3979.

Consider `Fc1cccc(F)c1CC/N=C(\S)Nc1ccc(Br)cn1`, for which the pED50 is recorded as 2.

Turning to `CCOc1ccc(F)c(CCNC(=S)Nc2ccc(Br)cn2)c1Cl` [THIOUREA, N-(5-BROMO-2-PYRIDINYL)-N'-(2-(2-CHLORO-3-ETHOXY-6-FLUOROPHENYL)ETHYL)-], the pED50 was determined as 2.1549.

Regarding `S=C(NCCc1ccccn1)Nc1ccc(Br)cn1` [TROVIRDINE], the pED50 came out at 1.6989.

The record behind these values is ChEMBL document CHEMBL1140615, “Predicting anti-HIV activity of PETT derivatives: CoMFA approach” (2007).
